Measured values taken from publication PMC7658267, “Effects of CYP46A1 Inhibition on Long-Term-Depression in Hippocampal Slices ex vivo and 24S-Hydroxycholesterol Levels in Mice in vivo” (Frontiers in Molecular Neuroscience, 2020).
Read-outs that look alike come from different tables or passages of the source.

What was measured:
Human 5-HT1B = target: T1, Human 5-HT1B (Homo sapiens, UniProt P28222); experiment: biochemical; design: CEREP off-target binding panel, per cent inhibition at 10 uM, n = 2
T1 construct: gene HTR1B

Human 5-HT3 = target: T2, Human 5-HT3 (Homo sapiens, UniProt P46098); experiment: biochemical; design: CEREP off-target binding panel, per cent inhibition at 10 uM, n = 2
T2 construct: gene HTR3A

Human 5-HT6 = target: T3, Human 5-HT6 (Homo sapiens, UniProt P50406); experiment: biochemical; design: CEREP off-target binding panel, per cent inhibition at 10 uM, n = 2
T3 construct: gene HTR6

Human 5-HT7 = target: T4, Human 5-HT7 (Homo sapiens, UniProt P34969); experiment: biochemical; design: CEREP off-target binding panel, per cent inhibition at 10 uM, n = 2
T4 construct: gene HTR7
T4 sequence (P34969 whole entry): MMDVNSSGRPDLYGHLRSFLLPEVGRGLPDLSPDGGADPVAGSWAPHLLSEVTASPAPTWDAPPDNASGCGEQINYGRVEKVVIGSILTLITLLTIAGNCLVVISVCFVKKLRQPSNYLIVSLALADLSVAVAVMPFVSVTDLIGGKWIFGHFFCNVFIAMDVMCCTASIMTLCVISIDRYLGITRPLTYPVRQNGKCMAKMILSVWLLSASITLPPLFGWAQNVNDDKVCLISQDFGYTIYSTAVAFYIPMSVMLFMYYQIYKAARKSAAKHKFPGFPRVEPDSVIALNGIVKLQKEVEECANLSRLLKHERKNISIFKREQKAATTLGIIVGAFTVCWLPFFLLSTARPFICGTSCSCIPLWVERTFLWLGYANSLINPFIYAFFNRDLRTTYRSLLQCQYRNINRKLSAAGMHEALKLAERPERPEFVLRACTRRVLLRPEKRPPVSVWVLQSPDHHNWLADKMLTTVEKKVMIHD

Human A1 = target: T5, Human A1 (Homo sapiens, UniProt P30542); experiment: biochemical; design: CEREP off-target binding panel, per cent inhibition at 10 uM, n = 2
T5 construct: gene ADORA1

Human A3 = target: T6, Human A3 (Homo sapiens, UniProt P0DMS8); experiment: biochemical; design: CEREP off-target binding panel, per cent inhibition at 10 uM, n = 2
T6 construct: gene ADORA3

Human AR = Human AR (Homo sapiens, UniProt P10275); experiment: biochemical; design: CEREP off-target binding panel, per cent inhibition at 10 uM, n = 2
Human CCR1 = Human CCR1 (Homo sapiens, UniProt P32246); experiment: biochemical; design: CEREP off-target binding panel, per cent inhibition at 10 uM, n = 2
Human CCR1, sequence (P32246 whole entry): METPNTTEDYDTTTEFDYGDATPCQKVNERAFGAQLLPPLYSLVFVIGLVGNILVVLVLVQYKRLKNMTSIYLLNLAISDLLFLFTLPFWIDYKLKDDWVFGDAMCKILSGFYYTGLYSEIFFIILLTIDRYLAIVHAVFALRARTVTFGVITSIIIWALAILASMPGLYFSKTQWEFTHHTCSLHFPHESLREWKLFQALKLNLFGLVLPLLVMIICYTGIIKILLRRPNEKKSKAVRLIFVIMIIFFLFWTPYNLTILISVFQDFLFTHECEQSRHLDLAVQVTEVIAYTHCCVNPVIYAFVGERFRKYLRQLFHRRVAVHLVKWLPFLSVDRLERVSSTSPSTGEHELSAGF

Human CXCR2 = Human CXCR2 (Homo sapiens, UniProt P25025); experiment: biochemical; design: CEREP off-target binding panel, per cent inhibition at 10 uM, n = 2
Human CXCR2, sequence (P25025 whole entry): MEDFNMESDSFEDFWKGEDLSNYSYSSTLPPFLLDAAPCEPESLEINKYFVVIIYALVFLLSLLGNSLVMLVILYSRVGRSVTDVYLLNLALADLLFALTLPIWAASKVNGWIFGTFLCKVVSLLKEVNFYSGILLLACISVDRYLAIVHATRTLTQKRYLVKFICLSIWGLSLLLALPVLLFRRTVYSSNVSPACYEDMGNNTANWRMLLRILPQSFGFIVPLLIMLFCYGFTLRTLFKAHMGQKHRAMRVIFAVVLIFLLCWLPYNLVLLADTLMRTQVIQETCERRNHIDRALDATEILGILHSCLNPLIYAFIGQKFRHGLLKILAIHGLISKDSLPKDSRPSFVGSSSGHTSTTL

Human D2s = target: T7, Human D2s (Homo sapiens, UniProt P14416); experiment: biochemical; design: CEREP off-target binding panel, per cent inhibition at 10 uM, n = 2
T7 construct: gene DRD2; D2s
T7 sequence (P14416 whole entry): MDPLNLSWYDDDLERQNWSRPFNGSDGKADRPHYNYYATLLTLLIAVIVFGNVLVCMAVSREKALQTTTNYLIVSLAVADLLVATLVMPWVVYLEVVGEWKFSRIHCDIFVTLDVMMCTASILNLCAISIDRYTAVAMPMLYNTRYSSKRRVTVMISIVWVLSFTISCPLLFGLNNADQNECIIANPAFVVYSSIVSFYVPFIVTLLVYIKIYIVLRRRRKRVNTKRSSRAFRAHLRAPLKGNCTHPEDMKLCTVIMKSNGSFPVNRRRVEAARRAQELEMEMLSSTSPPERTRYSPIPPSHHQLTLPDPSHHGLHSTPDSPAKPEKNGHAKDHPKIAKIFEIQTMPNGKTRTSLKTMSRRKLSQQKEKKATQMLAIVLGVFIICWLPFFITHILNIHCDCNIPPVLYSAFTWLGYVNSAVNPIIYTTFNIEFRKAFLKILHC

Human EP4 = target: T8, Human EP4 (Homo sapiens, UniProt P35408); experiment: biochemical; design: CEREP off-target binding panel, per cent inhibition at 10 uM, n = 2
T8 construct: gene PTGER4
T8 sequence (P35408 whole entry): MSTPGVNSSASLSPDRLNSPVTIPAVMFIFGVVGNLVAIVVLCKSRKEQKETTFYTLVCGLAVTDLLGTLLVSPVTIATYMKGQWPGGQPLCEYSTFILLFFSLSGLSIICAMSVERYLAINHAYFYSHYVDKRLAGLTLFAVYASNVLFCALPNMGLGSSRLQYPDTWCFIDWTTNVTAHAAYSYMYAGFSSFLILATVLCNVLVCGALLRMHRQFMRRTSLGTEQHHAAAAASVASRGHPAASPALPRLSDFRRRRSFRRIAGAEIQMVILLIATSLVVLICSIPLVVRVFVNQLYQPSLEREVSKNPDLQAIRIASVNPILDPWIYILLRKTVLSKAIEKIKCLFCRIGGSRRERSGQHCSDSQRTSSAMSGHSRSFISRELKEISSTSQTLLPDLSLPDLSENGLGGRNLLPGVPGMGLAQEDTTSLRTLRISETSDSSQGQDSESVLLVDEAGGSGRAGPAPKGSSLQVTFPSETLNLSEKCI

Human GR = target: T9, Human GR (Homo sapiens, UniProt P04150); experiment: biochemical; design: CEREP off-target binding panel, per cent inhibition at 10 uM, n = 2
T9 construct: gene NR3C1

Human H1 = target: T10, Human H1 (Homo sapiens, UniProt P35367); experiment: biochemical; design: CEREP off-target binding panel, per cent inhibition at 10 uM, n = 2
T10 construct: gene HRH1

Human H3 = target: T11, Human H3 (Homo sapiens, UniProt Q9Y5N1); experiment: biochemical; design: CEREP off-target binding panel, per cent inhibition at 10 uM, n = 2
T11 construct: gene HRH3
T11 sequence (Q9Y5N1 whole entry): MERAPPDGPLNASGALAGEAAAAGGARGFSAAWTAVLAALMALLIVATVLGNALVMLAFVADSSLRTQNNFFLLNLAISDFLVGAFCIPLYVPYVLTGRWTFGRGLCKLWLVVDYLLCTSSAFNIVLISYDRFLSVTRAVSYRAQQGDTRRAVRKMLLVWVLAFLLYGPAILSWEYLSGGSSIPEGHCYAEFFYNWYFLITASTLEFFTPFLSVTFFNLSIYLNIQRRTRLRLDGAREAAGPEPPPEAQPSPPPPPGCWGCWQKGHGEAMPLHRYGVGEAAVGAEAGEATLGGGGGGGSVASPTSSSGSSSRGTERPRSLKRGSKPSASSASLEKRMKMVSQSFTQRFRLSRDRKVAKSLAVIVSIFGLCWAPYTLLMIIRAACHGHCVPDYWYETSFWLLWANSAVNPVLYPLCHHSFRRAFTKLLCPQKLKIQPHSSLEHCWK

Human M1 = target: T12, Human M1 (Homo sapiens, UniProt P11229); experiment: biochemical; design: CEREP off-target binding panel, per cent inhibition at 10 uM, n = 2
T12 construct: gene CHRM1

Human M3 = target: T13, Human M3 (Homo sapiens, UniProt P20309); experiment: biochemical; design: CEREP off-target binding panel, per cent inhibition at 10 uM, n = 2
T13 construct: gene CHRM3
T13 sequence (P20309 whole entry): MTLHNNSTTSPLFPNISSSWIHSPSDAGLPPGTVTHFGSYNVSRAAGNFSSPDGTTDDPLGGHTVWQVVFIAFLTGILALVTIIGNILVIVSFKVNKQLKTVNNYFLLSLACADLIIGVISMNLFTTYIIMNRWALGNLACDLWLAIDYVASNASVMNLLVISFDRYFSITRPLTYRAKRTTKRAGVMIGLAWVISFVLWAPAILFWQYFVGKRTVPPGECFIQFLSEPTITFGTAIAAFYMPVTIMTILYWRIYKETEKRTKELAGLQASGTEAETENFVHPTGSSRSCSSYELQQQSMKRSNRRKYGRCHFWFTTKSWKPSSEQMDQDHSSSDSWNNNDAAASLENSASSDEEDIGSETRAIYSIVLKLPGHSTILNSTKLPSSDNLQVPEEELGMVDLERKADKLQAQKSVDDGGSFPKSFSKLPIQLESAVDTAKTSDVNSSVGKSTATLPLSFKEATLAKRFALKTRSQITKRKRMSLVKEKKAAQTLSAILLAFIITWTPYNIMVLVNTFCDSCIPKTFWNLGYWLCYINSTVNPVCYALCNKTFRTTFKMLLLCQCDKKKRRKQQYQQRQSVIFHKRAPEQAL

Human NK3 = target: T14, Human NK3 (Homo sapiens, UniProt P29371); experiment: biochemical; design: CEREP off-target binding panel, per cent inhibition at 10 uM, n = 2
T14 construct: gene TACR3
T14 sequence (P29371 whole entry): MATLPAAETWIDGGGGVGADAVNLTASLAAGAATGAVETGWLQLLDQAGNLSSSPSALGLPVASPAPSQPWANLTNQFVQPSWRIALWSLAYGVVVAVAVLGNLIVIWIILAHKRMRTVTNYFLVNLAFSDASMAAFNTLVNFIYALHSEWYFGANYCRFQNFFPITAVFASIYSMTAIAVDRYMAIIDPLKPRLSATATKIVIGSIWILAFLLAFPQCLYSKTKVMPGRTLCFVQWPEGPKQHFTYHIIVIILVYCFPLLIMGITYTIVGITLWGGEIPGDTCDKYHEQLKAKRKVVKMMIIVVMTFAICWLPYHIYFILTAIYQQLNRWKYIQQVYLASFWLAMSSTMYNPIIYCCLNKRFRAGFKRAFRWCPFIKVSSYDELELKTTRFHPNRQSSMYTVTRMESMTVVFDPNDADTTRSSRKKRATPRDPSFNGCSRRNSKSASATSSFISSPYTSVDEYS

Human NOP = target: T15, Human NOP (Homo sapiens, UniProt P41146); experiment: biochemical; design: CEREP off-target binding panel, per cent inhibition at 10 uM, n = 2
T15 construct: gene OPRL1

Human PR = target: T16, Human PR (Homo sapiens, UniProt P06401); experiment: biochemical; design: CEREP off-target binding panel, per cent inhibition at 10 uM, n = 2
T16 construct: gene PGR

Human PXR = target: T17, Human PXR (Homo sapiens, UniProt O75469); experiment: in vitro; design: CEREP off-target binding panel, per cent inhibition at 10 uM, n = 2
T17 construct: gene NR1I2

Human V1a = target: T18, Human V1a (Homo sapiens, UniProt P37288); experiment: biochemical; design: CEREP off-target binding panel, per cent inhibition at 10 uM, n = 2
T18 construct: gene AVPR1A
T18 sequence (P37288 whole entry): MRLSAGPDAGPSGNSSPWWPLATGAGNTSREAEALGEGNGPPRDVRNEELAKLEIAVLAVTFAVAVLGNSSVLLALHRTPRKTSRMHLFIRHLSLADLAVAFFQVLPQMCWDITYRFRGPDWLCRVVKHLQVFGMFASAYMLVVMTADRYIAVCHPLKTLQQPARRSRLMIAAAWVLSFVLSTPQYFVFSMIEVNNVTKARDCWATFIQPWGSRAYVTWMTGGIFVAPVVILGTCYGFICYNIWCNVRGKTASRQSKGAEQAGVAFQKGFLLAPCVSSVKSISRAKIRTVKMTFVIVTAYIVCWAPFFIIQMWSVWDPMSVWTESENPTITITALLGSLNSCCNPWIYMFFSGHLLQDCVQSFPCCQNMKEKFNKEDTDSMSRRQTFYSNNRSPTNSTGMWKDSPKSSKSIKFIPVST

Human VPAC1 = target: T19, Human VPAC1 (Homo sapiens, UniProt P32241); experiment: biochemical; design: CEREP off-target binding panel, per cent inhibition at 10 uM, n = 2
T19 construct: gene VIPR1

Human Y1 = target: T20, Human Y1 (Homo sapiens, UniProt P25929); experiment: biochemical; design: CEREP off-target binding panel, per cent inhibition at 10 uM, n = 2
T20 construct: gene NPY1R

Human Y2 = target: T21, Human Y2 (Homo sapiens, UniProt P49146); experiment: biochemical; design: CEREP off-target binding panel, per cent inhibition at 10 uM, n = 2
T21 construct: gene NPY2R
T21 sequence (P49146 whole entry): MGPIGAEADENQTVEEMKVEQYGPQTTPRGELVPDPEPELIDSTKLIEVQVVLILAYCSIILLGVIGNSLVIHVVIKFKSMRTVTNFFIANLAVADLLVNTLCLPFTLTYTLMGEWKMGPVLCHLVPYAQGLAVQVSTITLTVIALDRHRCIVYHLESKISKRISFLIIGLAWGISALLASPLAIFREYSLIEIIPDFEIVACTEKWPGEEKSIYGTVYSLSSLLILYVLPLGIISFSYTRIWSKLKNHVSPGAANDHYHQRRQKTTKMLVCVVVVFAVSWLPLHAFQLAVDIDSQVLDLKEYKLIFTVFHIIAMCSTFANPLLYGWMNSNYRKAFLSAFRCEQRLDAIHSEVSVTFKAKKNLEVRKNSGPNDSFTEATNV

Human β2 = target: T22, Human β2 (Homo sapiens, UniProt P07550); experiment: biochemical; design: CEREP off-target binding panel, per cent inhibition at 10 uM, n = 2
T22 construct: gene ADRB2

CYP2C19 = CYP2C19 (Homo sapiens, UniProt P33261); experiment: biochemical; design: CYP off-target inhibition panel
CYP2C19, sequence (P33261 whole entry): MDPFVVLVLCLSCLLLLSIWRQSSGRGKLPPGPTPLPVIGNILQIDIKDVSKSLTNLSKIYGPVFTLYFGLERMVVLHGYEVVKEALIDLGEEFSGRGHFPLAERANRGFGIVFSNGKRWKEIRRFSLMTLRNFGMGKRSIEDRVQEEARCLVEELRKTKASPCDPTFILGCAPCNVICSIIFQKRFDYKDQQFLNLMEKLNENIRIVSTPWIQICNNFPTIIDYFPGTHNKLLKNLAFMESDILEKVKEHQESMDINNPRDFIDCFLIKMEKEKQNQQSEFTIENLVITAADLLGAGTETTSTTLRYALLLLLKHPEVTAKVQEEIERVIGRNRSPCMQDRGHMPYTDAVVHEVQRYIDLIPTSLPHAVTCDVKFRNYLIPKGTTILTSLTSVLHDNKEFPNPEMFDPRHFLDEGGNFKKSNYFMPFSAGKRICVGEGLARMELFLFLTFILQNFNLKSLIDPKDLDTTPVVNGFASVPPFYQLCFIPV

| Structure (SMILES) | inhibition at 10 µM (Human 5-HT1B) [%] | inhibition at 10 µM (Human 5-HT3) [%] | inhibition at 10 µM (Human 5-HT6) [%] | inhibition at 10 µM (Human 5-HT7) [%] | inhibition at 10 µM (Human A1) [%] | inhibition at 10 µM (Human A3) [%] | inhibition at 10 µM (Human AR) [%] | inhibition at 10 µM (Human CCR1) [%] | inhibition at 10 µM (Human CXCR2) [%] | inhibition at 10 µM (Human D2s) [%] | inhibition at 10 µM (Human EP4) [%] | inhibition at 10 µM (Human GR) [%] | inhibition at 10 µM (Human H1) [%] | inhibition at 10 µM (Human H3) [%] | inhibition at 10 µM (Human M1) [%] | inhibition at 10 µM (Human M3) [%] | inhibition at 10 µM (Human NK3) [%] | inhibition at 10 µM (Human NOP) [%] | inhibition at 10 µM (Human PR) [%] | inhibition at 10 µM (Human PXR) [%] | other results |
| --- | --- | --- | --- | --- | --- | --- | --- | --- | --- | --- | --- | --- | --- | --- | --- | --- | --- | --- | --- | --- | --- |
| O=C(c1cnc2c(-c3cnco3)cc(C(F)(F)F)cn12)N1C2CCC1COC2 [compound 1, (3-oxa-8-azabicyclo[3.2.1]octan-8-yl)(8-(oxazol-5-yl)-6-(trifluoromethyl)imidazo[1,2-a]pyridin-3-yl)methanone] | -8.4 | 11 | -0.7 | 5.4 | 32 | 23.3 | -2 | 2.6 | -11.3 | -15.2 | -22.4 | -8.6 | -12.9 | -3.3 | 3.3 | -9.1 | 4.1 | 1.4 | 2 | 4.8 | inhibition at 10 µM (Human V1a): -7.4%; inhibition at 10 µM (Human VPAC1): 5.5%; inhibition at 10 µM (Human Y1): -2.9%; inhibition at 10 µM (Human Y2): -3.7%; inhibition at 10 µM (Human β2): -8.1%; IC50 (CYP2C19): > 50 µM |
| O=C(c1cccnc1-c1ccncn1)N1CCC(O)(Cc2ccc(F)cc2)CC1 [compound 2, (4-(4-fluorobenzyl)-4-hydroxypiperidin-1-yl)(2-(pyrimidin-4-yl)pyridin-3-yl)methanone] | -13.3 | 0.8 | 0.9 | 4.2 | 12.2 | 5.4 | 3.1 | -1.7 | -1.5 | -15.4 | 1.8 | -0.6 | -13.3 | -14.7 | -8.6 | 7.3 | 1.1 | 0.6 | -4.7 | 8.8 | inhibition at 10 µM (Human V1a): 2.8%; inhibition at 10 µM (Human VPAC1): -1.9%; inhibition at 10 µM (Human Y1): -16.3%; inhibition at 10 µM (Human Y2): 6.8%; inhibition at 10 µM (Human β2): -2%; IC50 (CYP2C19; read-out: compound 2): > 50 µM |
